Measurements taken from PMC4747340, “A new class of small molecule estrogen receptor-alpha antagonists that overcome anti-estrogen resistance” (Oncotarget, 2015).
pIC50: −log10 of the molar value.

How the values were obtained:
Format in all cases: cell-based
BRCA1: ER complex = molecular target: T1, BRCA1: ER complex (Homo sapiens, UniProt P03372); test: immunoprecipitation-Western blotting of BRCA1:ER complex in MCF-7 cells
T1 construct: endogenous in cells; host or cells: MCF-7
Method: Figure 7 Compound 4631-P/1 disrupts the BRCA1/ER interaction in MCF-7 cells A., B. MCF-7 cells were incubated with the indicated with compound 4631-P/1 (1 or 20 μM) or vehicle only (DMSO) plus E2 (10 nM) for 24 hr; and the cells were harvested for immunoprecipitation of ER (A) or BRCA1 (B), followed by Western blotting for ER and BRCA1. As a negative control, cells treated with vehicle (DMSO) only were subjected to an IP with normal IgG. C. Unprecipitated lysates from cells treated as in panel A were subjected to Western blotting to detect BRCA1, ER, or actin (loading control). The data shown in each panel are representative of three independent experiments.
After the indicated treatments, cells were harvested, and whole cell extracts were prepared in IP buffer [10 mM Tris-HCl (pH 7.4), 150 mM NaCl, 1 mM EDTA, 1 mM EGTA, 1% Triton X-100, 0.5% IGEPAL CA-630 (Sigma), 10% glycerol, 1 mM sodium orthovanadate, and protease inhibitor cocktail (Santa Cruz)] [11, 18]. Each IP was carried out using 2-μg antibody and 500-μg extract protein. […] For each experiment, a control IP using an equal quantity of normal mouse or rabbit IgG (Santa Cruz) was carried out. […]

ER Lys449Ala = molecular target: T2, ER Lys449Ala (Homo sapiens, UniProt P03372, K449A); test: ER mutation analysis, ERE-TK-Luc reporter in transfected MDA-MB-231 cells; conditions: MDA-MB-231 transfected with mutant ER, E2 10 nM, 24 hr
T2 construct: expressed in transfected cells; host or cells: MDA-MB-231
Excerpt: (§1) B., C. Panels B and C show a comparison of the ER interaction of one of our original series of compounds (A7) (B) and one new compounds (48693-K/1) (C). ER is represented by gray ribbon and its residues interacting with the compounds are drawn with wireframe and labeled. […] The hydrogen bond interaction with ARG 394 is shown in green line. […] The cells were harvested for luciferase assays. Luciferase values are expressed as a percent of the +E2 vehicle control and are means ± SEMs of four wells. The data shown in panels D to G are representative of three independent experiments.
(§2) Subconfluent cells in 24-well dishes were transfected overnight with 0.25 μg of each indicated vector plus the ERE-TK-Luc reporter in serum-free DMEM containing Lipofectamine2000 (Life Technologies, Washington, DC). Total transfected DNA was kept constant by addition of control vector. The cells were washed, incubated in phenol red-free DMEM containing 5% charcoal-stripped serum (obtained from the Tissue Culture Shared Resource) (0.2 ml/well) ± E2 (10 nM) ± the indicated compound for 24-hr, and harvested for luciferase assays. For each assay condition was tested in quadrupicate. To monitor the transfection efficiency, cultures were co-transfected with plasmid pRSV-β-gal (Promega, Madison, WI) to visualize transfected cells by X-gal staining.

ER Ile326Ala = molecular target: T3, ER Ile326Ala (Homo sapiens, UniProt P03372, I326A); test: as above; conditions: MDA-MB-231 transfected with mutant ER, E2 10 nM, 24 hr
T3 construct: expressed in transfected cells; host or cells: MDA-MB-231
Excerpt: as §1, §2

ER Glu323Ala = molecular target: T4, ER Glu323Ala (Homo sapiens, UniProt P03372, E323A); test: as above; conditions: MDA-MB-231 transfected with mutant ER, E2 10 nM, 24 hr
T4 construct: expressed in transfected cells; host or cells: MDA-MB-231
Excerpt: as §1, §2

ER Leu387Ala = molecular target: T5, ER Leu387Ala (Homo sapiens, UniProt P03372, L387A); test: as above; conditions: MDA-MB-231 transfected with mutant ER, E2 10 nM, 24 hr
T5 construct: expressed in transfected cells; host or cells: MDA-MB-231
Excerpt: as §1, §2

ER Arg394Ala = molecular target: T6, ER Arg394Ala (Homo sapiens, UniProt P03372, R394A); test: as above; conditions: MDA-MB-231 transfected with mutant ER, E2 10 nM, 24 hr
T6 construct: expressed in transfected cells; host or cells: MDA-MB-231
Excerpt: as §1, §2

ER His356Ala = molecular target: T7, ER His356Ala (Homo sapiens, UniProt P03372, H356A); test: as above; conditions: MDA-MB-231 transfected with mutant ER, E2 10 nM, 24 hr
T7 construct: expressed in transfected cells; host or cells: MDA-MB-231
Excerpt: as §1, §2

ER Pro325Ala = molecular target: T8, ER Pro325Ala (Homo sapiens, UniProt P03372, P325A); test: as above; conditions: MDA-MB-231 transfected with mutant ER, E2 10 nM, 24 hr
T8 construct: expressed in transfected cells; host or cells: MDA-MB-231
Excerpt: as §1, §2

ER-β = molecular target: T9, ER-β (Homo sapiens, UniProt Q92731); test: E2-stimulated ER-β activity, ERE-TK-Luc reporter in transfected DU-145 cells
T9 construct: host or cells: DU-145
Method: (§3) Figure 12 Compound 35446 inhibits the activity of ER-β Subconfluent proliferating DU-145 cells in 24-well dishes were transfected overnight with the ER=α or ER=β expression vector plus the ERE-TK-Luc reporter plasmid (0.25 μg per plasmid/well), washed, and allowed to recover for several hours in fresh culture medium. The cells were then post-incubated for 24 hr to allow gene expression, after which they were treated ± E2 (10 nM) and ± compound 35446 (20 μM) (or compound B2 as a negative control) for 24 hr and assayed for luciferase activity. Luciferase activity is expressed relative to the no E2 control. Values are means ± SEMs of four replicate wells. The data shown in each panel are representative of three independent experiments.
To determine the effect of compound on ER-β activity, an ER- β expression plasmid (cat. no.: 35562, Addgene, Cambridge) was co-transfected into ER- DU-145 human prostate carcinoma cells along with the ERE-TK-Luc reporter plasmid (0.25 μg of each plasmid) and the cells were incubated overnight to allow gene expression. The cells were then treated ± E2 (10 nM) and ± the indicated compound for 24-hr, and harvested for luciferase assays as above.

ER-α = molecular target: T10, ER-α (Homo sapiens, UniProt P03372); test: E2-stimulated ER-α activity, ERE-TK-Luc reporter in transfected DU-145 cells; conditions: DU-145 transfected with ER-α, E2 10 nM, compound 20 μM, 24 hr
T10 construct: expressed in transfected cells; host or cells: DU-145
Method: as §3
as §2, with “To monitor the transfection efficiency, cultures were co-transfected with plasmid pRSV-β-gal (Promega, Madison, WI) to visualize transfected cells by X-gal staining.” left out

T9 sequence (Q92731 whole entry): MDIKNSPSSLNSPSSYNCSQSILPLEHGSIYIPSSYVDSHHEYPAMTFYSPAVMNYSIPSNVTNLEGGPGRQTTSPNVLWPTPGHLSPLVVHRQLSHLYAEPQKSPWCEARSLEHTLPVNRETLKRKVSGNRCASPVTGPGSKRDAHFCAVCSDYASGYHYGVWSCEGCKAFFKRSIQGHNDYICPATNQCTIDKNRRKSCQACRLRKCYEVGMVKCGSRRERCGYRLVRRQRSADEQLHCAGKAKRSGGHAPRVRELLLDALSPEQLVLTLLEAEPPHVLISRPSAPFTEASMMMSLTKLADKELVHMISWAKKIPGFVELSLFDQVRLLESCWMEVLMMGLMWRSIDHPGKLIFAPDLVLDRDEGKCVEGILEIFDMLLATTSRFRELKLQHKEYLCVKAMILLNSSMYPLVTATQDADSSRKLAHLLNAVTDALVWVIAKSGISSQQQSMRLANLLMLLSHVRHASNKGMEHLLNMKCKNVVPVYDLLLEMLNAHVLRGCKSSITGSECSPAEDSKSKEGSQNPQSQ
T1 sequence (P03372 whole entry, one chain of several): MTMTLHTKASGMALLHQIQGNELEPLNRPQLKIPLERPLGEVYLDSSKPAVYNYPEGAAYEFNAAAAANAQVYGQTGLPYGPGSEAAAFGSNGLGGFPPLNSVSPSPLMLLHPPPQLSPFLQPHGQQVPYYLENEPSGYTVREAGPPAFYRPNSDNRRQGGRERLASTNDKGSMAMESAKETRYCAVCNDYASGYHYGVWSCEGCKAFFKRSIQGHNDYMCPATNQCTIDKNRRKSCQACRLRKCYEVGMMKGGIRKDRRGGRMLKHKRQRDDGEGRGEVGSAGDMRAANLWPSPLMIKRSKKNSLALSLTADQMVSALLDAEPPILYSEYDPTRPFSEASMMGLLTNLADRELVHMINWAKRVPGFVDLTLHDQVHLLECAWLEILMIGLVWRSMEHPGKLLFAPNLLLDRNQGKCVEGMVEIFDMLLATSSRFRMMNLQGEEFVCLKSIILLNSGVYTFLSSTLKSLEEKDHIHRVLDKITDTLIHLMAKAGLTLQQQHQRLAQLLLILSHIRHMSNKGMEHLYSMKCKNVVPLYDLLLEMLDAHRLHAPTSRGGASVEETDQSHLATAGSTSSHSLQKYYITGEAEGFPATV
T4 sequence (P03372 whole entry E323A): as the sequence (P03372 whole entry, one chain of several) above, with E323A counted along it
T5 sequence (P03372 whole entry L387A): as the sequence (P03372 whole entry, one chain of several) above, with L387A counted along it
T3 sequence (P03372 whole entry I326A): as the sequence (P03372 whole entry, one chain of several) above, with I326A counted along it
T2 sequence (P03372 whole entry K449A): as the sequence (P03372 whole entry, one chain of several) above, with K449A counted along it
T7 sequence (P03372 whole entry H356A): as the sequence (P03372 whole entry, one chain of several) above, with H356A counted along it
T8 sequence (P03372 whole entry P325A): as the sequence (P03372 whole entry, one chain of several) above, with P325A counted along it
T6 sequence (P03372 whole entry R394A): as the sequence (P03372 whole entry, one chain of several) above, with R394A counted along it
T10 sequence (P03372 whole entry): as the sequence (P03372 whole entry, one chain of several) above

O=C(c1cc(Br)ccc1O)c1cc(Br)ccc1O [4631-P/1]
dissociation of the BRCA1: ER complex (BRCA1: ER complex; MCF-7, E2 10 nM, compound 0, 1, 20 μM, 24 hr, IP-Western): concentration-dependent dissociation of ER and BRCA1 | effect on total levels of ER or BRCA1 (BRCA1: ER complex; MCF-7, Western blotting of non-precipitated lysates): no effect

O=C(CC(c1ccccc1)N1CCCCC1)c1ccccc1 (stereo not drawn) [35446-L/1, 1,3-diphenyl-3-(piperidin-1-yl)propan-1-one]
IC50 (ER Lys449Ala): > 15 µM | IC50 (ER Ile326Ala): 4 µM | IC50 (ER Glu323Ala): 0.9 µM | IC50 (ER Leu387Ala): 5 µM | IC50 (ER Arg394Ala): > 15 µM | IC50 (ER His356Ala): 0.8 µM | IC50 (ER Pro325Ala): 0.9 µM | inhibition at 20 µM (ER-β; DU-145, read-out: inhibition of E2-stimulated ER-β activity): ~67% | pIC50 (ER-β; DU-145 transfected with ER-β, E2 10 nM, 24 hr, read-out: IC50 for inhibition of ER-β activity): 5.70 | inhibition at 20 µM (ER-α): > 90%
